Results reported in ChEMBL document CHEMBL5131567, “3,5,7-Substituted Pyrazolo[4,3-d]Pyrimidine Inhibitors of Cyclin-Dependent Kinases and Cyclin K Degraders” (J Med Chem, 2022).
The source made the active and inactive calls. No cut-off for these calls is given here.

What was measured:
[1] = tested on: U2932; test: Antiproliferative activity against human U2932 cells assessed as cell growth inhibition measured after 72 hrs by resazurin dye based microplate reader analysis; assay type: functional
[2] = tested on: SUD4; test: Antiproliferative activity against human SU-DHL-4 cells assessed as cell growth inhibition measured after 72 hrs by resazurin dye based microplate reader analysis; assay type: functional
[3] = Inhibition of GST-tagged human CDK5/p25 expressed in Sf9 cells using histone H1 as substrate in presence of ATP and [gamma33-P] ATP by radioisotope filter binding assay
[4] = Antiproliferative activity against human UPF1H cells assessed as cell growth inhibition measured after 72 hrs by resazurin dye based microplate reader analysis; assay type: functional
[5] = molecular target: Cyclin-dependent kinase 2/cyclin E1 (Homo sapiens, UniProt P24941); test: Inhibition of His-tagged CDK2/cyclin E1 (unknown origin) expressed in Sf9 cells using histone H1 as substrate in presence of ATP and [gamma33-P]ATP by radioisotope filter binding assay; assay type: cell-based
[6] = Antiproliferative activity against human MINO cells assessed as cell growth inhibition measured after 72 hrs by resazurin dye based microplate reader analysis; assay type: functional
[7] = Antiproliferative activity against human Ri-1 cells assessed as cell growth inhibition measured after 72 hrs by resazurin dye based microplate reader analysis; assay type: functional
[8] = molecular target: CDK9/cyclin T1 (Homo sapiens, UniProt P50750); test: Inhibition of GST-tagged human CDK9/Cyclin T1 expressed in Sf9 cells using (YSPTSPS)2KK peptide as substrate in presence of ATP and [gamma33-P] ATP by radioisotope filter binding assay; assay type: cell-based
[9] = molecular target: Cyclin-dependent kinase 13/Cyclin-K (Homo sapiens, UniProt Q14004); test: Inhibition of GST-tagged human CDK13/Cyclin K expressed in Sf9 cells using RBER-IRStide peptide as substrate in presence of ATP and [gamma33-P] ATP by radioisotope filter binding assay
[10] = Antiproliferative activity against human OCI-Ly2 cells assessed as cell growth inhibition measured after 72 hrs by resazurin dye based microplate reader analysis; assay type: functional
[11] = tested on: OCI-LY19; test: Antiproliferative activity against human OCILY19 cells assessed as cell growth inhibition measured after 72 hrs by resazurin dye based microplate reader analysis; assay type: functional
[12] = tested on: NU-DUL-1; test: Antiproliferative activity against human NU-DUL-1 cells assessed as cell growth inhibition measured after 72 hrs by resazurin dye based microplate reader analysis; assay type: functional
[13] = tested on: DB; test: Antiproliferative activity against human DB cells assessed as cell growth inhibition measured after 72 hrs by resazurin dye based microplate reader analysis; assay type: functional
[14] = molecular target: CDK12/Cyclin K (Homo sapiens, UniProt Q9NYV4); test: Inhibition of GST-tagged human CDK12/Cyclin K expressed in Sf9 cells using RBER-IRStide peptide as substrate in presence of ATP and [gamma33-P] ATP by radioisotope filter binding assay
[15] = molecular target: Cyclin-dependent kinase 2/G1/S-specific cyclin-D1 (Homo sapiens, UniProt P24385+P24941); assay type: cell-based, Sf9
[16] = tested on: MINO; test: Downregulation of cyclin K levels in human MINO cells up to 5 uM incubated for 2 hrs by immunoblotting analysis; assay type: functional, cell-based
[17] = molecular target: Glycogen synthase kinase-3 beta (Homo sapiens) (UniProt P49841); test: Inhibition of human GSK3beta (2 to 420 residues) expressed in Sf21 cells at 1 uM using YRRAAVPPSPSLSRHSSPHQS(PO4)EDEEE peptide as substrate incubated for 30 mins in presence of [gamma33P]ATP by scintillation based radioactive filter binding assay relative to control
[18] = molecular target: Serine/threonine-protein kinase PAK 4 (Homo sapiens) (UniProt O96013); test: Inhibition of human PAK4 (2 to 591 residues) expressed in Escherichia coli expression system at 1 uM using RRRLSFAEPG peptide as substrate incubated for 30 mins in presence of [gamma33P]ATP by scintillation based radioactive filter binding assay relative to control
[19] = molecular target: Dual specificity tyrosine-phosphorylation-regulated kinase 1A (Homo sapiens) (UniProt Q13627); test: Inhibition of human DYRK1A (1 to 502 residues) expressed in Escherichia coli expression system at 1 uM using KKISGRLSPIMTEQ peptide as substrate incubated for 30 mins in presence of [gamma33P]ATP by scintillation based radioactive filter binding assay relative to control
[20] = tested on: VFN-D2; test: In vivo induction of degradation of cyclin K in patient-derived VFN-D2 cells xenografted in NSG mouse assessed as reduction in cyclin K levels at 0.1 to 10 mg/kg, ip measured after 24 hrs by immunoblotting analysis; assay type: functional, organism-based; settings: dose 0.1-10 mg/kg
[21] = tested on: MINO; test: Induction of apoptosis in human MINO cells assessed as reduction in mcl-1 levels at 2.5 to 40 nM measured after 24 hrs by immunoblotting analysis; assay type: functional, cell-based; settings: dose 2.5-40 nM
[22] = tested on: MINO; test: Induction of apoptosis in human MINO cells assessed as reduction in XIAP levels at 2.5 to 40 nM measured after 24 hrs by immunoblotting analysis; assay type: functional, cell-based; settings: dose 2.5-40 nM
[23] = tested on: MINO; test: Downregulation of mcl-1 levels in human MINO cells incubated for 2 hrs by immunoblotting analysis; assay type: functional, cell-based; settings: dose 2.5-40 nM, DDE = dose-dependent effect
[24] = tested on: MINO; test: Downregulation of RB levels in human MINO cells incubated for 24 hrs by immunoblotting analysis; assay type: functional, cell-based; settings: dose 2.5-40 nM, DDE = dose-dependent effect
[25] = tested on: MINO; test: Downregulation of CDK4 levels in human MINO cells incubated for 24 hrs by immunoblotting analysis; assay type: functional, cell-based; settings: dose 2.5-40 nM, DDE = dose-dependent effect
[26] = tested on: MINO; test: Downregulation of cyclin K levels in human MINO cells at 5 nM incubated for 2 hrs by immunoblotting analysis; assay type: functional, cell-based
[27] = tested on: MINO; test: Downregulation of cyclin D1 levels in human MINO cells incubated for 24 hrs by immunoblotting analysis; assay type: functional, cell-based; settings: dose 2.5-40 nM, DDE = dose-dependent effect
[28] = tested on: MINO; test: Downregulation of cyclin K levels in human MINO cells at 50 nM incubated for 2 hrs by immunoblotting analysis; assay type: functional, cell-based
[29] = tested on: MINO; test: Induction of degradation of cyclin K in human MINO cells coexpressing DDB1 with siRNA assessed as stabilization of cyclin K levels at 100 nM measured after 1 hrs by immunoblotting analysis; assay type: functional, cell-based
[30] = tested on: MINO; test: Inhibition of CDK in human MINO cells assessed as dephosphorylation of C-terminus of RNA polymerase II at serine 2 incubated for 2 hrs by immunoblotting analysis; assay type: cell-based; settings: dose 0.005-5 µM, DDE = dose-dependent effect
[31] = tested on: MINO; test: Inhibition of CDK in human MINO cells assessed as dephosphorylation of retinoblastoma protein incubated for 2 hrs by immunoblotting analysis; assay type: cell-based; settings: dose 0.005-5 µM, DDE = dose-dependent effect
[32] = tested on: MINO; test: Inhibition of CDK in human MINO cells assessed as dephosphorylation of C-terminus of RNA polymerase II at serine 5 incubated for 2 hrs by immunoblotting analysis; assay type: cell-based; settings: dose 0.005-5 µM, DDE = dose-dependent effect
[33] = tested on: VFN-D2; test: In vivo induction of degradation of cyclin K in patient-derived VFN-D2 cells xenografted in NSG mouse assessed as reduction in CDK12 levels at 0.1 to 10 mg/kg, ip measured after 24 hrs by immunoblotting analysis; assay type: functional, organism-based; settings: dose 0.1-10 mg/kg

Sequence of CDK9/cyclin T1 (O60563 whole entry): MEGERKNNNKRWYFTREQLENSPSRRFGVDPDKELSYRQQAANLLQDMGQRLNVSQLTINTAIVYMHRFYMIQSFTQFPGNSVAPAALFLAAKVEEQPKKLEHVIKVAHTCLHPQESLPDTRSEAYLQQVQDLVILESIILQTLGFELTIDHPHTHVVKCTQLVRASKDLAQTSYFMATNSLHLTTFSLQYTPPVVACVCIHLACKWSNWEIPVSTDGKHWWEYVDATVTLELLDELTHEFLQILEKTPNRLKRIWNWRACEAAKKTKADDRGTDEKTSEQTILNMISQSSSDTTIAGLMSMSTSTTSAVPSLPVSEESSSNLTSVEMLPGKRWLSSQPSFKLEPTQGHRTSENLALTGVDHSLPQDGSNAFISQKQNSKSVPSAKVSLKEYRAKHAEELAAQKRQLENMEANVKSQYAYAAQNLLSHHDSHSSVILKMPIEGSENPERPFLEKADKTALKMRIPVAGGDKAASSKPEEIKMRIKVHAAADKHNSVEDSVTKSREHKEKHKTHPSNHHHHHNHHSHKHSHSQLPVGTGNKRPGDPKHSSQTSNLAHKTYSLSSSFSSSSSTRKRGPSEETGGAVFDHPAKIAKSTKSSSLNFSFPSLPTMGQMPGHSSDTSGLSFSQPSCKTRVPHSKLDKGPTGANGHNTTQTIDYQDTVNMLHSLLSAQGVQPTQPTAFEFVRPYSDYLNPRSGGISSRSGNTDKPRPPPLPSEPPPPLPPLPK
Sequence of CDK9/cyclin T1 (P50750 whole entry): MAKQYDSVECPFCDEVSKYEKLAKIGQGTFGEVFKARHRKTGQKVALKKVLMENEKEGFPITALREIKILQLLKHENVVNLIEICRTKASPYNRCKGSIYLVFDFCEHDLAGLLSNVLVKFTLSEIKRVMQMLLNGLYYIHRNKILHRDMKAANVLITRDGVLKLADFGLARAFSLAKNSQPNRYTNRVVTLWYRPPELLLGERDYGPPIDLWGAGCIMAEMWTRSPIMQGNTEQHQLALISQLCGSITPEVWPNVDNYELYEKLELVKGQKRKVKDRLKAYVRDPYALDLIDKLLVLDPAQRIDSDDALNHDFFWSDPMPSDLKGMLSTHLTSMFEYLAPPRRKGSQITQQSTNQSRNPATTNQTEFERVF
Sequence of CDK12/Cyclin K (O75909 whole entry): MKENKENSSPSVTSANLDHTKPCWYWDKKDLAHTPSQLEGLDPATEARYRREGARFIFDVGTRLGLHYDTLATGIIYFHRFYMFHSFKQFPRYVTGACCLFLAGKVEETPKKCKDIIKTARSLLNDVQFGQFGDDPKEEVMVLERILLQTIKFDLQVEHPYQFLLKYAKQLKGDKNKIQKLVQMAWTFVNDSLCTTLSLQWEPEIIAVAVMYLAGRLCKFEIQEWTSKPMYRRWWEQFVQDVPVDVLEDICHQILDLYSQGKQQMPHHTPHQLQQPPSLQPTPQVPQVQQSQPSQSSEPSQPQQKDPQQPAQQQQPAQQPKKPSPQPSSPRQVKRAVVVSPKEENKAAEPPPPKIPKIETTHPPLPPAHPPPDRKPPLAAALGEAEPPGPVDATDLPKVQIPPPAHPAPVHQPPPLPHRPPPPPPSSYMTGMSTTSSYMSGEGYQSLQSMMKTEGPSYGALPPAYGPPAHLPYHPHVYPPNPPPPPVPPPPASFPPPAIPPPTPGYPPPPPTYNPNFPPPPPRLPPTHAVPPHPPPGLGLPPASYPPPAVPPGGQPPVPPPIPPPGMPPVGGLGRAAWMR
Sequence of CDK12/Cyclin K (Q9NYV4 whole entry): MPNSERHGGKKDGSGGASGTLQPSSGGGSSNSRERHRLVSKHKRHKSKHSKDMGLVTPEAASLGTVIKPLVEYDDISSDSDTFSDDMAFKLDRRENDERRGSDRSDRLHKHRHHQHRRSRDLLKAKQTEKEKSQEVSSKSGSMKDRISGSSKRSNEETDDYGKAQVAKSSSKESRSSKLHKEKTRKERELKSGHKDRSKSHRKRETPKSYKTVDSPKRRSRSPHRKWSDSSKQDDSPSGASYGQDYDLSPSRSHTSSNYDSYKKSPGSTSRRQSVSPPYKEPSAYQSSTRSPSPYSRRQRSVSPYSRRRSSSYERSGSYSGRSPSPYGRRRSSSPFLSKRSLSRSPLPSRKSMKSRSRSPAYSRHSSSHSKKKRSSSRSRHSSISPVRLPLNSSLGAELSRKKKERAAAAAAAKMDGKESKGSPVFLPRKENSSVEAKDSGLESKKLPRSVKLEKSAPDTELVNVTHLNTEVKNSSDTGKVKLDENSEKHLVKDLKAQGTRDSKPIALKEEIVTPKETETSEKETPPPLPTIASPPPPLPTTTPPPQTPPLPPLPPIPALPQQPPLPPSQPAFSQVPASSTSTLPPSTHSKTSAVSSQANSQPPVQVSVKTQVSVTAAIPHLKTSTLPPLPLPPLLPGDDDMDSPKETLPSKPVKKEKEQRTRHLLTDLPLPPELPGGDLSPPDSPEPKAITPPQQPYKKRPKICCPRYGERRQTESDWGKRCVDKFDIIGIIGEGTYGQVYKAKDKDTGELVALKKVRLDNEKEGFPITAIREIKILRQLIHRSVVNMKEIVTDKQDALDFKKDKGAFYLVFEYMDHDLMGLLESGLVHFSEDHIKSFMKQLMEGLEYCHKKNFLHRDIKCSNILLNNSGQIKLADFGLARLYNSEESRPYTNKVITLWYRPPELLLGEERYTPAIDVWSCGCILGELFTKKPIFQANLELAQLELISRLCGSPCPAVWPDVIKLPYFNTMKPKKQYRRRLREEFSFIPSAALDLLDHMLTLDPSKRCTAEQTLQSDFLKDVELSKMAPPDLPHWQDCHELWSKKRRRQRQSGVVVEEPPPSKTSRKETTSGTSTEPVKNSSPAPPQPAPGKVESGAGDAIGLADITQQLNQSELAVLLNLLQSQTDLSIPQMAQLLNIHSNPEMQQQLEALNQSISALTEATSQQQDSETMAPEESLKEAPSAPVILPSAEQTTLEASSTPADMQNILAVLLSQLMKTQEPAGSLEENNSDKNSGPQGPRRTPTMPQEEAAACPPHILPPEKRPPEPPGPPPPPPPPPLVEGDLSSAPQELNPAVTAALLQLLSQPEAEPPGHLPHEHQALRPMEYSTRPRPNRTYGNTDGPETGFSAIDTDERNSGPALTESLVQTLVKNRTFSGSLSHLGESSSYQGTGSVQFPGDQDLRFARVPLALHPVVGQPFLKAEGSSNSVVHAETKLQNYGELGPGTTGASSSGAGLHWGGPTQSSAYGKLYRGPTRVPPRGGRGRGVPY
Sequence of Cyclin-dependent kinase 13/Cyclin-K (Q14004 whole entry): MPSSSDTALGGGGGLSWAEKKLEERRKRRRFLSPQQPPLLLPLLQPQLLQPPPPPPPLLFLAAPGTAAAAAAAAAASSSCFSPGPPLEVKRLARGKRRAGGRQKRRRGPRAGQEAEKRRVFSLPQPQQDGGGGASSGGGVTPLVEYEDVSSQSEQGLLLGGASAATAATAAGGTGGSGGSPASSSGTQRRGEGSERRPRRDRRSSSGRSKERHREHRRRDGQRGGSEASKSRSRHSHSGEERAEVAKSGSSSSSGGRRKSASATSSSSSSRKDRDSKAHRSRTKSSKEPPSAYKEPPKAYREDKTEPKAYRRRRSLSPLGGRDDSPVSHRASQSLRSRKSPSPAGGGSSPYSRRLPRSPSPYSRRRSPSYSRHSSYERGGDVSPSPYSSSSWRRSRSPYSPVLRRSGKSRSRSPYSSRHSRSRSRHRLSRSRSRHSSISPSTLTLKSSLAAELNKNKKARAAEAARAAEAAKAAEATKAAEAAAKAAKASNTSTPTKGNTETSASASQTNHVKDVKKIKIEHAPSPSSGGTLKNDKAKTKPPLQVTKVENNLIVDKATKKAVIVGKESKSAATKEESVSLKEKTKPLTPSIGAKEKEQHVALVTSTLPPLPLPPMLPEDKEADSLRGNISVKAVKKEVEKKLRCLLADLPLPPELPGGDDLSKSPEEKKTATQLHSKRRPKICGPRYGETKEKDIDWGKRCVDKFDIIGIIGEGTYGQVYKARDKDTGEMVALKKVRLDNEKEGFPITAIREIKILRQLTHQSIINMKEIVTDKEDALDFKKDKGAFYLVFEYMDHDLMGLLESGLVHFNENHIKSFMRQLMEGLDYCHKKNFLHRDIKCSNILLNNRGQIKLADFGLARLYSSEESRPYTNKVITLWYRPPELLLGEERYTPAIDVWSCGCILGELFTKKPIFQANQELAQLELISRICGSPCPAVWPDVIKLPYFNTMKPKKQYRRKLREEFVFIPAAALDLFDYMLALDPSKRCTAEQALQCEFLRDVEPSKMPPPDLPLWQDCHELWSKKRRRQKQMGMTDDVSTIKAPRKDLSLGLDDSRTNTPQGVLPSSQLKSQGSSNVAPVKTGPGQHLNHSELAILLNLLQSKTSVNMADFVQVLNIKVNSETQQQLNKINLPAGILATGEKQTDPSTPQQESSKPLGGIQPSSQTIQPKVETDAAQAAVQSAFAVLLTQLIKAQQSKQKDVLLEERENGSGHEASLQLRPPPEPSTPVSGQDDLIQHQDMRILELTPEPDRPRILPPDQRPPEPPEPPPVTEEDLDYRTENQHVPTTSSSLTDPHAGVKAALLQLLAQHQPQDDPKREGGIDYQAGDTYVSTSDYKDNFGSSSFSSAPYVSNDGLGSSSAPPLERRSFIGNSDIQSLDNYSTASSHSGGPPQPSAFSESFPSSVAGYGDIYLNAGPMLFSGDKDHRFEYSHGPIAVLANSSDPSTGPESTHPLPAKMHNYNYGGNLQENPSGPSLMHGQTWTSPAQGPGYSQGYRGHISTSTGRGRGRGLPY
Sequence of Cyclin-dependent kinase 13/Cyclin-K (O75909 whole entry, further chain): as the sequence (O75909 whole entry) above

| SMILES | GI50 [1] [nM] | GI50 [2] [nM] | IC50 [3] [nM] | GI50 [4] [nM] | IC50 [5] [nM] | GI50 [6] [nM] | GI50 [7] [nM] | IC50 [8] [nM] | IC50 [9] [nM] | GI50 [10] [nM] | GI50 [11] [nM] | GI50 [12] [nM] | GI50 [13] [nM] | IC50 [14] [nM] | IC50 [15] [nM] | further results |
| --- | --- | --- | --- | --- | --- | --- | --- | --- | --- | --- | --- | --- | --- | --- | --- | --- |
| CC(C)c1n[nH]c2c(NCc3ccc(-n4ccnc4)cc3)nc(SCCN)nc12 | 689 | 435 | 54 | 1770 | 4 | 927 | 435 | 11 | 67 | 170 | 3560 | 384 | 599 | 73 | > 1000 |  |
| NCCSc1nc(NCc2ccc(-c3ccccn3)cc2)c2[nH]nc(C3CCCC3)c2n1 | 265 | 180 | 127 | 111 | 12 | 31 | 330 | 38 | 334 | 47 | 915 | 200 | 107 | 304 | > 1000 |  |
| CN(C)C/C=C/C(=O)Nc1ccc(C(=O)N2CCC[C@@H](Nc3ncc(Cl)c(-c4c[nH]c5ccccc45)n3)C2)cc1 |  |  |  |  |  |  |  |  |  |  |  |  |  |  |  | Activity [16]: Active |
| CC(C)c1n[nH]c2c(NCc3ccc(-c4cnccn4)cc3)nc(SCCN)nc12 | 93 | 62 | 157 | 69 |  | 22 | 54 | 23 | 22 | 33 | 445 | 54 | 75 | 50 | > 1000 |  |
| CC(O)CSc1nc(NCc2ccc(-n3cccn3)cc2)c2n[nH]c(C(C)C)c2n1 (centres undefined) | 59 | 105 | 179 | 61 | 6 | 18 | 61 | 62 | 122 | 55 | 101 | 62 | 78 | 156 | > 1000 | inhibition [17]: > 50%; inhibition [18]: > 50%; inhibition [19]: > 50% |
| NCCSc1nc(NCc2ccc(-c3ccccn3)cc2)c2[nH]nc(C3CCC3)c2n1 | 44 | 30 | 24 | 19 | 5 | 11 | 23 | 12 | 12 | 40 | 350 | 17 | 22 | 29 | 940 |  |
| NCCSc1nc(NCc2ccc(-n3cccn3)cc2)c2[nH]nc(C3CCC3)c2n1 | 55 | 28 | 39 | 10 | 4 | 10 | 54 | 20 | 22 | 11 | 465 | 15 | 20 | 64 | > 1000 | Activity [20]: Active; Activity [21]: Active; Activity [22]: Active; Activity [23]: Dde; Activity [24]: Dde; Activity [25]: Dde; Activity [26]: Active; Activity [27]: Dde; Activity [28]: Active; Activity [29]: Active; Activity [30]: Dde; Activity [31]: Dde; Activity [32]: Dde; Activity [33]: Active |
| CCc1cnn2c(NCc3ccc[n+]([O-])c3)cc(N3CCCC[C@H]3CCO)nc12 [DINACICLIB] | 11 | 9 | 13 | 22 |  | 21 | 15 |  | 21 | 10 | 20 | 10 | 14 |  |  | Activity [16]: Active |
